Experimental data as given in ChEMBL document CHEMBL1201862, “PubChem BioAssay data set” (2004).
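Five compound concentrations were applied to cells in 96-well plates for 48 hours; endpoints were derived by simple linear interpolation of the resulting dose-response curve. GI50 marks 50% less growth.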 Calls of active or inactive are those of the source. No stated cut-off is given here; in the data, active = GI50 up to about 1.1 µM and inactive = higher.

Tests used:
Assay in all cases: DTP human tumour cell line panel, 48 h
A498 = tested on: A498
A549 = tested on: A549
CCRF-CEM = tested on: CCRF-CEM
COLO 205 = tested on: COLO 205
EKVX = tested on: EKVX
HCT-15 = tested on: HCT-15
HOP-92 = tested on: HOP-92
HT-29 = tested on: HT-29
M14 = tested on: M14
SF-268 = tested on: SF-268
SF-539 = tested on: SF-539
SK-MEL-28 = tested on: SK-MEL-28
SK-MEL-5 = tested on: SK-MEL-5
SW-620 = tested on: SW-620
UACC-257 = tested on: UACC-257
DU-145 = tested on: DU-145
MCF7 = tested on: MCF7
PC-3 = tested on: PC-3
T47D = tested on: T47D
Hs-578T = tested on: Hs-578T

With `COC(=O)C(CCCCCCCC(C(=O)OC)C1=Nc2nnc(N)n2C1=O)C1=Nc2nnc(N)n2C1=O` (configuration not stated) as the compound, how does the GI50 (A498) read?
Its GI50 is > 100 µM (inactive).

And the GI50 (A549)?
The GI50 was > 100 µM (inactive).

And the GI50 (CCRF-CEM)?
Its GI50 is > 100 µM (inactive).

And the GI50 (COLO 205)?
Its GI50 is > 100 µM (inactive).

And the GI50 (EKVX)?
Its GI50 is > 100 µM (inactive).

What about the GI50 (HCT-15) of the same compound?
The GI50 was over 100 µM.

What about the GI50 (HOP-92) of the same compound?
Its GI50 is 65.8 µM (inactive).

And the GI50 (HT-29)?
Its GI50 is > 100 µM (inactive).

What about the GI50 (M14) of the same compound?
The GI50 was > 100 µM (inactive).

What about the GI50 (SF-268) of the same compound?
Its GI50 is > 100 µM (inactive).

What about the GI50 (SF-539) of the same compound?
The GI50 was 84.3 µM (inactive).

And the GI50 (SK-MEL-28)?
The GI50 was > 100 µM (inactive).

What about the GI50 (SK-MEL-5) of the same compound?
Its GI50 is > 100 µM (inactive).

What about the GI50 (SW-620) of the same compound?
Its GI50 is > 100 µM (inactive).

And the GI50 (UACC-257)?
The GI50 was > 100 µM (inactive).

`Cc1ccc(C(=O)N/N=C(\N=N\c2cccc(Cl)c2)c2ccc(N(CCC#N)CCC#N)cc2C)cc1` was tested. Which GI50 (A498) did it give?
Its GI50 is > 100 µM (inactive).

What about the GI50 (A549) of the same compound?
Its GI50 is > 100 µM (inactive).

What about the GI50 (CCRF-CEM) of the same compound?
Its GI50 is 97.1 µM (inactive).

And the GI50 (COLO 205)?
The GI50 was > 100 µM (inactive).

What about the GI50 (DU-145) of the same compound?
Its GI50 is > 100 µM (inactive).

And the GI50 (EKVX)?
The GI50 was > 100 µM (inactive).

And the GI50 (HCT-15)?
The GI50 was over 100 µM.

And the GI50 (HOP-92)?
The GI50 was > 100 µM (inactive).

What about the GI50 (HT-29) of the same compound?
Its GI50 is 90.2 µM (inactive).

And the GI50 (M14)?
The GI50 was > 100 µM (inactive).

What about the GI50 (MCF7) of the same compound?
The GI50 was > 100 µM (inactive).

What about the GI50 (PC-3) of the same compound?
Its GI50 is > 100 µM (inactive).

And the GI50 (SF-539)?
The GI50 was > 100 µM (inactive).

And the GI50 (SK-MEL-28)?
Its GI50 is > 100 µM (inactive).

And the GI50 (SK-MEL-5)?
The GI50 was > 100 µM (inactive).

And the GI50 (SW-620)?
Its GI50 is > 100 µM (inactive).

And the GI50 (T47D)?
The GI50 was 69 µM (inactive).

And the GI50 (UACC-257)?
Its GI50 is > 100 µM (inactive).

How did the GI50 (A498) turn out when `COc1ccc(C(=O)O/N=C2/CCCCC2CN(C)C)cc1` (configuration not stated) was run?
Its GI50 is > 100 µM (inactive).

And the GI50 (A549)?
Its GI50 is > 100 µM (inactive).

What about the GI50 (CCRF-CEM) of the same compound?
The GI50 was > 100 µM (inactive).

What about the GI50 (COLO 205) of the same compound?
The GI50 was > 100 µM (inactive).

And the GI50 (EKVX)?
Its GI50 is > 100 µM (inactive).

What about the GI50 (HCT-15) of the same compound?
The GI50 was over 100 µM.

And the GI50 (HOP-92)?
Its GI50 is > 100 µM (inactive).

What about the GI50 (HT-29) of the same compound?
The GI50 was > 100 µM (inactive).

And the GI50 (M14)?
Its GI50 is > 100 µM (inactive).

And the GI50 (SF-268)?
The GI50 was > 10 µM (inactive).

And the GI50 (SF-539)?
The GI50 was > 100 µM (inactive).

What about the GI50 (SK-MEL-28) of the same compound?
Its GI50 is > 100 µM (inactive).

And the GI50 (SK-MEL-5)?
Its GI50 is > 100 µM (inactive).

What about the GI50 (SW-620) of the same compound?
The GI50 was > 100 µM (inactive).

And the GI50 (UACC-257)?
Its GI50 is > 100 µM (inactive).

What does the source list for `C[C@@H]1CCC2C(C)(C)C(/C=C\C=O)C3(C)OC213` (some centres not stated)?
GI50 (A498): > 100 µM (inactive); GI50 (A549): > 100 µM (inactive); GI50 (COLO 205): 25.4 µM (inactive); GI50 (DU-145): 29.1 µM (inactive); GI50 (EKVX): 37.8 µM (inactive); GI50 (HCT-15): 25.4 µM; GI50 (HOP-92): 26.5 µM (inactive); GI50 (HT-29): 26.4 µM (inactive); GI50 (Hs-578T): 21.5 µM (inactive); GI50 (M14): 65.2 µM (inactive); GI50 (MCF7): 40.6 µM (inactive); GI50 (PC-3): 41.2 µM (inactive); GI50 (SF-268): 27.3 µM (inactive); GI50 (SK-MEL-28): 44 µM (inactive); GI50 (SK-MEL-5): 20.3 µM (inactive); GI50 (SW-620): 40.9 µM (inactive); GI50 (UACC-257): 45.8 µM (inactive)

For `COc1ccccc1/C=N/C12CC3CC(CC(C3)C1)C2`, which GI50 (A498) is on record?
The GI50 was > 100 µM (inactive).

And the GI50 (A549)?
The GI50 was > 100 µM (inactive).

And the GI50 (CCRF-CEM)?
Its GI50 is > 100 µM (inactive).

And the GI50 (COLO 205)?
The GI50 was > 100 µM (inactive).

What about the GI50 (EKVX) of the same compound?
Its GI50 is > 100 µM (inactive).

What about the GI50 (HCT-15) of the same compound?
The GI50 was 91.8 µM.

What about the GI50 (HOP-92) of the same compound?
Its GI50 is > 100 µM (inactive).

What about the GI50 (HT-29) of the same compound?
Its GI50 is > 100 µM (inactive).

And the GI50 (M14)?
The GI50 was > 100 µM (inactive).

What about the GI50 (SF-268) of the same compound?
Its GI50 is > 100 µM (inactive).

What about the GI50 (SF-539) of the same compound?
The GI50 was > 100 µM (inactive).

And the GI50 (SK-MEL-28)?
Its GI50 is > 100 µM (inactive).

And the GI50 (SK-MEL-5)?
Its GI50 is 81.8 µM (inactive).

And the GI50 (SW-620)?
The GI50 was > 100 µM (inactive).

And the GI50 (UACC-257)?
Its GI50 is > 100 µM (inactive).

For `CCN1CCCC(Nc2cc(C)nc(NC(=N)Nc3ccc(Cl)c(Cl)c3)n2)C1` (configuration not stated), which GI50 (A549) is on record?
The GI50 was 1.91 µM (inactive).

What about the GI50 (CCRF-CEM) of the same compound?
Its GI50 is 0.63 µM (active).

What about the GI50 (COLO 205) of the same compound?
Its GI50 is 1.27 µM (inactive).

And the GI50 (DU-145)?
The GI50 was 4.43 µM (inactive).

What about the GI50 (EKVX) of the same compound?
The GI50 was 2.86 µM (inactive).

And the GI50 (HCT-15)?
The GI50 was 1.74 µM.

What about the GI50 (HOP-92) of the same compound?
The GI50 was 1.31 µM (inactive).

And the GI50 (HT-29)?
The GI50 was 3.06 µM (inactive).

What about the GI50 (Hs-578T) of the same compound?
The GI50 was 2.02 µM (inactive).

And the GI50 (M14)?
Its GI50 is 0.254 µM (active).

And the GI50 (MCF7)?
The GI50 was 1.79 µM (inactive).

What about the GI50 (SF-268) of the same compound?
The GI50 was 1.96 µM (inactive).

And the GI50 (SF-539)?
The GI50 was 1.88 µM (inactive).

What about the GI50 (SK-MEL-28) of the same compound?
Its GI50 is 1.77 µM (inactive).

And the GI50 (SK-MEL-5)?
Its GI50 is 2.08 µM (inactive).

What does the source list for `C=C1c2nc3ccccc3n2C=C(c2ccccc2)N1c1ccc(OC)cc1`?
GI50 (A498): > 100 µM (inactive); GI50 (A549): 18.5 µM (inactive); GI50 (CCRF-CEM): 22.8 µM (inactive); GI50 (COLO 205): 25.4 µM (inactive); GI50 (DU-145): 26.4 µM (inactive); GI50 (EKVX): 23.9 µM (inactive); GI50 (HCT-15): 6.9 µM; GI50 (HOP-92): 31.1 µM (inactive); GI50 (M14): 13.2 µM (inactive); GI50 (MCF7): 6.81 µM (inactive); GI50 (PC-3): 19.1 µM (inactive); GI50 (SF-539): 14 µM (inactive); GI50 (SK-MEL-5): 11.1 µM (inactive); GI50 (SW-620): 47.5 µM (inactive); GI50 (UACC-257): 31.8 µM (inactive)

How did the GI50 (A498) turn out when `CN1CCCOC(c2ccc(Cl)cc2)O1` (configuration not stated) was run?
Its GI50 is > 100 µM (inactive).

And the GI50 (A549)?
The GI50 was > 100 µM (inactive).

And the GI50 (CCRF-CEM)?
The GI50 was > 100 µM (inactive).

What about the GI50 (COLO 205) of the same compound?
Its GI50 is > 100 µM (inactive).

What about the GI50 (DU-145) of the same compound?
The GI50 was > 100 µM (inactive).

What about the GI50 (EKVX) of the same compound?
Its GI50 is > 100 µM (inactive).

What about the GI50 (HCT-15) of the same compound?
The GI50 was over 100 µM.

What about the GI50 (HOP-92) of the same compound?
Its GI50 is 65 µM (inactive).

And the GI50 (HT-29)?
The GI50 was > 100 µM (inactive).

What about the GI50 (M14) of the same compound?
The GI50 was > 100 µM (inactive).

And the GI50 (MCF7)?
Its GI50 is > 100 µM (inactive).

And the GI50 (PC-3)?
Its GI50 is > 100 µM (inactive).

And the GI50 (SF-268)?
The GI50 was > 100 µM (inactive).

What about the GI50 (SF-539) of the same compound?
Its GI50 is > 100 µM (inactive).

And the GI50 (SK-MEL-28)?
Its GI50 is > 100 µM (inactive).

And the GI50 (SK-MEL-5)?
The GI50 was > 100 µM (inactive).

And the GI50 (SW-620)?
Its GI50 is > 100 µM (inactive).

What about the GI50 (T47D) of the same compound?
The GI50 was > 100 µM (inactive).

And the GI50 (UACC-257)?
The GI50 was > 100 µM (inactive).

What does the source list for `COC(=O)C1=C(C(=O)OC)SC(=C2c3ccsc3-c3sccc32)S1`?
GI50 (A498): 24.5 µM (inactive); GI50 (A549): 37.2 µM (inactive); GI50 (CCRF-CEM): 38.1 µM (inactive); GI50 (COLO 205): 47.5 µM (inactive); GI50 (DU-145): > 100 µM (inactive); GI50 (EKVX): 27.3 µM (inactive); GI50 (HCT-15): 53.7 µM; GI50 (HT-29): 22.8 µM (inactive); GI50 (Hs-578T): 14.9 µM (inactive); GI50 (M14): 36.6 µM (inactive); GI50 (MCF7): 27.4 µM (inactive); GI50 (PC-3): 47 µM (inactive); GI50 (SF-268): 19.9 µM (inactive); GI50 (SF-539): 20.7 µM (inactive); GI50 (SK-MEL-28): 24.3 µM (inactive); GI50 (SK-MEL-5): 31.9 µM (inactive); GI50 (SW-620): 69 µM (inactive); GI50 (UACC-257): 64.4 µM (inactive)
